Patent US20100111874A1, “METHOD OF CANCER DETECTION AND TREATMENT” (University of Medicine and Dentistry of New Jresey, priority 2007, published 2010)
pIC50: −log10 of the molar value.

Experiments:
[1] = system: MCF7 breast cancer cells; assay: MTT assay, CPT IC50; format: cell-based; settings: Homo sapiens, 96 h, CPT continuously for 4 days
Experimental: (§1) Cell survival assays. MTT assay: Cells (3000 cells/well) are plated in 96-well microtiter plates and incubated at 37° C. in a CO2 incubator. For determination of IC50, cells are treated with varying concentrations of CPT for four days. Cells are then incubated with MTT (3-(4,5-dimethylthiazol-2-yl)-2,5-diphenyltetrazolium bromide) for 4 hrs at 37° C. The dye produced by viable cells is dissolved in DMSO and the optical density measured at 570 nm. All assays are performed at least twice in six replicate wells. Clonogenic assay: Cells (100-500 cells/plate) are plated in 6-well tissue culture plates and incubated at 37° C. in a CO2 incubator. Cells are then treated with various concentrations of CPT for 1 hr. Following CPT treatment, cells are washed free of CPT and placed in fresh medium. After 10 days, survived colonies are stained with Methylene blue and counted using the Minicount machine. Cell counting assay: Logarithmically growing cells are treated with various concentrations of CPT for 1 hr. CPT is then removed by washing the plates with CPT-free medium four times. Washed cells are allowed to grow in CPT-free medium for 4 days. Cell survival is determined by counting cells using the Coulter counter after trypsinization.
(§2) Example No. 6. […] Panel A, formation of cleavable complexes in MCF7 and MCF7/RC breast cancer cells. […]

[2] = system: MCF7/RC breast cancer cells; assay: MTT assay, CPT IC50; format: cell-based; settings: Homo sapiens, 96 h; MCF7/RC low-level CPT-resistant clone; CPT continuously for 4 days
Experimental: as §1, §2

In the case of `CC[C@@]1(O)C(=O)OCc2c1cc1n(c2=O)Cc2cc3ccccc3nc2-1` [CPT, camptothecin], the pIC50 [1] was 8.46 and the pIC50 [2] was 7.52.
